From patent publication US4721787A, “Process for the preparation of benzo-(pyrano and thiopyrano)-pyridines” (Ciba-Geigy Corporation, priority 1985, dated 1988)

Tested on: presynaptic dopamine receptor (dopamine autoreceptor)
Assay: rat gamma-butyrolactone (GBL) model, in-vivo presynaptic dopamine agonist (autoreceptor agonist) activity
Conditions: i.p.
Method: Indicative of potential neuroleptic activity of the compounds of the invention, the in-vivo presynaptic dopamine agonist activity (also called dopamine autoreceptor agonist activity) is determined in the rat gamma-butyrolactone (GBL) model by a modification of the procedure described by Walters and Roth, Naunyn Schmiedeberg's Arch. Pharmacol. 296, 5 (1976). In this model, a presynaptic dopamine agonist inhibits the GBL-induced accumulation of the dopamine precursor DOPA after pretreatment with 3-hydroxybenzylhydrazine (NSD-1015), a DOPA decarboxylase inhibitor.
Test compounds are dissolved in 0.9% saline, with sodium metabisulfite to prevent oxidation, if required. […] Dihydroxyphenylalanine (DOPA) is analyzed by High Pressure Liquid Chromatography/Electrochemistry (HPLC/EC) techniques using a Bio-analytical Systems (BAS) Model LC-150 series Liquid Chromatograph. […] Compounds are detected with an electro-chemical detector having an oxidizing potential of 0.7 volts and sensitivity setting of 20 nAmps/V. Tissue concentrations and recoveries are calculated by using the internal standard dihydroxybenzylamine (DHBA). […] Data is statistically analysed by one-way Analysis of Variance with Duncan's Multiple Comparison Test. The activity of the test compounds is determined as the percent inhibition of DOPA accumulation at a given dose. […]

SMILES: CCCN1CCC[C@@H]2c3cc(O)ccc3OC[C@H]21.Cl (relative stereo) [trans-9-hydroxy-4-propyl-1,2,3,4a,5,10b-hexahydro-4H-[1]-benzopyrano[3,4-b]pyridine hydrochloride]
- ED50 in the GBL model (inhibition of DOPA accumulation by 50%): about 0.16 mg/kg
